Among the test systems are EKVX NSCLC; HT29 colon; MOLT-4 leukemia; NCI-H522 lung; CCRF-CEM leukemia; SK-MEL-28 melanoma; TK-10 renal; COLO 205 colon; K-562 leukemia; IGROV1 ovarian.
What all share (test): NCI tumour cell line growth inhibition, 48 h

Each structure is given as a SMILES string.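 Each compound was tested at five concentrations against cells in 96-well plates for 48 hours. At the GI50, growth is halved. TGI denotes the concentration required for complete inhibition of growth.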

`CCOc1ccccc1NC(=O)CC(C(=O)OC)C(=O)C(=O)OC` (configuration not stated): the TGI with EKVX NSCLC, with HT29 colon, with MOLT-4 leukemia, in the test on NCI-H522 lung, in the test with CCRF-CEM leukemia and in the test with SK-MEL-28 melanoma was above 100 µM each time. For the same molecule, the TGI in the test with TK-10 renal, in the test with COLO 205 colon, in the test on K-562 leukemia and in the test on IGROV1 ovarian was above 100 µM in each case.
Turning to `NS(=O)(=O)c1ccc(N=Nc2c(O)[nH]c3ccc(-c4cnco4)cc23)cc1`, the GI50 in the test with EKVX NSCLC is above 25 µM; in the test with HT29 colon, above 25 µM; in the test with MOLT-4 leukemia, above 25 µM; in the test with NCI-H522 lung it was above 6.68 µM; in the test on CCRF-CEM leukemia it was 14.4 µM; with SK-MEL-28 melanoma, above 25 µM. In addition, the GI50 in the test on TK-10 renal, in the test on COLO 205 colon, in the test with K-562 leukemia and in the test with IGROV1 ovarian was above 25 µM in each case. The TGI in the test with EKVX NSCLC, with HT29 colon, in the test on MOLT-4 leukemia, with NCI-H522 lung, with CCRF-CEM leukemia and in the test on SK-MEL-28 melanoma was above 25 µM throughout. For the same molecule, the TGI with TK-10 renal, in the test with COLO 205 colon, in the test with K-562 leukemia and in the test with IGROV1 ovarian was above 25 µM in each case.
For `Cn1c2c(c3ccccc31)CC1c3c(c4ccccc4n3C)CC21` (configuration not stated), the TGI in the test on EKVX NSCLC, in the test on HT29 colon, in the test on MOLT-4 leukemia, in the test with NCI-H522 lung, in the test on CCRF-CEM leukemia and in the test with SK-MEL-28 melanoma was above 100 µM each time. In addition, the TGI in the test on TK-10 renal, with COLO 205 colon, in the test with K-562 leukemia and in the test with IGROV1 ovarian was above 100 µM each time.
With `COc1cc2ncnc(Nc3ccc(C)c(O)c3)c2cc1OC`, the GI50 in the test on EKVX NSCLC is 6.3 µM; in the test on HT29 colon, 14.7 µM; with MOLT-4 leukemia, above 25 µM; in the test on NCI-H522 lung, 2.83 µM; in the test on CCRF-CEM leukemia, above 25 µM; with SK-MEL-28 melanoma, above 25 µM. For the same molecule, the GI50 in the test with TK-10 renal was 3.62 µM; with COLO 205 colon, above 25 µM; in the test on K-562 leukemia it was 7.19 µM; with IGROV1 ovarian, 1.98 µM. Further, the TGI in the test on EKVX NSCLC is above 25 µM; in the test on HT29 colon, above 25 µM; in the test on MOLT-4 leukemia, above 25 µM; in the test with NCI-H522 lung, above 18.6 µM; in the test with CCRF-CEM leukemia, above 25 µM; with SK-MEL-28 melanoma, above 25 µM. Moreover, the TGI was 12 µM in the test on TK-10 renal, above 25 µM with COLO 205 colon, above 25 µM with K-562 leukemia and above 12 µM in the test on IGROV1 ovarian.
Regarding `COc1ccc(C(=O)C(C(=O)CCC(=O)Nc2cccc(Cl)c2)c2ccc(OC)cc2)cc1` (configuration not stated), the TGI with EKVX NSCLC, with HT29 colon, with MOLT-4 leukemia, with NCI-H522 lung, with CCRF-CEM leukemia and in the test with SK-MEL-28 melanoma was above 100 µM in each case. The TGI in the test on TK-10 renal, in the test with COLO 205 colon, in the test on K-562 leukemia and in the test with IGROV1 ovarian was above 100 µM throughout.
For the molecule `CC(C)C(Nc1c2ccccc2nc2ccccc12)C(=O)O` (configuration not stated), the TGI with EKVX NSCLC, with HT29 colon, with MOLT-4 leukemia, in the test on NCI-H522 lung, in the test with CCRF-CEM leukemia and in the test on SK-MEL-28 melanoma was above 100 µM each time. In addition, the TGI with TK-10 renal, with COLO 205 colon, in the test with K-562 leukemia and in the test with IGROV1 ovarian was above 100 µM in each case.
Turning to `O=C(NC1=CC(=O)c2ccccc2C1=O)c1ccccc1`, the GI50 in the test with EKVX NSCLC is 0.729 µM; in the test with HT29 colon, 2.33 µM; with MOLT-4 leukemia, 2.04 µM; in the test with NCI-H522 lung, 0.702 µM; with CCRF-CEM leukemia, 0.872 µM; with SK-MEL-28 melanoma, 0.841 µM. Moreover, the GI50 in the test on TK-10 renal was 2.71 µM; with COLO 205 colon, 1.8 µM; with K-562 leukemia, 0.694 µM; in the test with IGROV1 ovarian, 1.26 µM. Also, the TGI in the test with EKVX NSCLC was determined as 7.63 µM; in the test on HT29 colon, 4.9 µM; in the test with MOLT-4 leukemia, 6.22 µM; with NCI-H522 lung, 2.76 µM; in the test with SK-MEL-28 melanoma, 15.3 µM; in the test on TK-10 renal, 5.38 µM. Further, the TGI was 3.31 µM in the test on COLO 205 colon, above 100 µM in the test on K-562 leukemia and 2.85 µM with IGROV1 ovarian.
Consider `COc1ccc(Cn2cc3c(c2-c2ccccc2)CC(C)(C)c2cnoc2-3)cc1`, for which the GI50 with EKVX NSCLC is 1.99 µM; in the test on HT29 colon, 0.95 µM; with MOLT-4 leukemia, 2.82 µM; in the test with NCI-H522 lung it was 0.314 µM; in the test with CCRF-CEM leukemia it was 2.47 µM; in the test on SK-MEL-28 melanoma it was 6.86 µM. Besides, the GI50 is 2.91 µM with TK-10 renal, 1.65 µM with COLO 205 colon, 0.377 µM with K-562 leukemia and 2.3 µM in the test with IGROV1 ovarian. The TGI is above 100 µM with EKVX NSCLC; 7.53 µM in the test with HT29 colon; above 100 µM in the test on MOLT-4 leukemia; 1.9 µM in the test on NCI-H522 lung; above 100 µM in the test with CCRF-CEM leukemia; above 100 µM with SK-MEL-28 melanoma. Further, the TGI in the test on TK-10 renal is above 100 µM; with COLO 205 colon, 5.1 µM; in the test with K-562 leukemia, above 100 µM; in the test with IGROV1 ovarian, above 100 µM.
Regarding `Cc1nc(N)sc1C(=O)/C=C\c1ccc2c(c1)OCO2`, the TGI in the test on EKVX NSCLC, with HT29 colon, with MOLT-4 leukemia, with NCI-H522 lung, in the test with CCRF-CEM leukemia and in the test with SK-MEL-28 melanoma was above 100 µM each time. The TGI with TK-10 renal, in the test with COLO 205 colon, with K-562 leukemia and in the test with IGROV1 ovarian was above 100 µM each time.
For the molecule `COc1nc2ccccc2cc1-c1nc2c(cnn2-c2ccc(Br)cc2)c(=O)[nH]1`, the GI50 in the test with EKVX NSCLC is 0.0817 µM; in the test with HT29 colon, 0.0191 µM; in the test with MOLT-4 leukemia, 0.0879 µM; with NCI-H522 lung, 0.0153 µM; in the test with CCRF-CEM leukemia, 0.0238 µM; in the test on SK-MEL-28 melanoma, 0.361 µM. Also, the GI50 was 0.21 µM in the test with TK-10 renal, 0.0545 µM in the test with COLO 205 colon, 0.0182 µM with K-562 leukemia and 0.0591 µM with IGROV1 ovarian. Moreover, the TGI was above 50 µM with EKVX NSCLC; above 50 µM in the test on HT29 colon; above 50 µM with MOLT-4 leukemia; above 31.8 µM in the test with CCRF-CEM leukemia; above 50 µM with SK-MEL-28 melanoma; 8.8 µM in the test on TK-10 renal. Besides, the TGI in the test with K-562 leukemia is 13.4 µM; in the test with IGROV1 ovarian, above 50 µM.

The record behind these values is PubChem BioAssay (NCI).
